Format in all cases: cell-based, Human
Experiment [1] has as its system HEL^PE (HEL-persistent, ruxolitinib-resistant) cells. In words: Apoptosis detection by flow cytometry after Annexin V-PI staining, HEL-persistent model. As to conditions: 24 hours. The source says:
(§1) Three parallel replicate groups were set up, and the apoptosis of cells was detected by flow cytometry after Annexin V-PI staining.
(§2) The calculation formula of the apoptosis rate: apoptosis rate=ratio of early apoptotic cells (Annexin V+/PI−)+ratio of late apoptotic cells and necrotic cells (Annexin V+/PI+).

The test system of experiment [2] is HEL^RE (HEL-resistant, ruxolitinib-resistant) cells. In words: Anti-proliferative test, CellTiter-Lumi luminescence method, HEL-resistant model. The following applies: for IC50: HEL^RE cells. As to the method:
(§3) HEL (Human erythroleukemia cell line) and drug-resistant HEL cells were cultured in RPMI medium (Gibco) containing 20% heat-inactivated fetal bovine serum (Gibco) and 1% penicillin/streptomycin (Gibco).
(§4) HEL^PE model, namely HEL-persistent model, was constructed by treating HEL blast cells with a high concentration of ruxolitinib that exceeded the IC50 concentration of blast cells by more than 100 times, wherein the concentration of ruxolitinib used herein was 2.0 μM. The culture medium of the cells was changed every two days, the cells that cannot tolerate the high concentration of ruxolitinib died quickly, while the proliferated cells were DTP (drug-tolerant-persisters), and this cell subset was difficult to be killed by antitumor drugs. Stable drug-resistant cells were obtained after 4-6 weeks. Another drug resistance model is HEL^RE, namely the HEL-resistant model, which was constructed by treating blast cells with ruxolitinib from a starting concentration lower than the IC50 concentration of blast cells, slowly increasing to a high concentration to keep the cells from being killed. The starting concentration used herein was 0.1 μM, the drug was added as soon as the cells proliferated, the dosing gradient was 1.25-fold increments, and the final concentration was 2.0 μM. Stable drug-resistant cells were obtained after 4-6 weeks.
(§5) To test the anti-proliferative effect of the inhibitors, the above cell lines were cultured at a 3000 cells/200 μL per well, added with increasing concentrations of the inhibitors (concentration gradient: 0, 1, 2.5, 5, 10, 20 μM), then supplemented with DMSO to an equal volume. 4 parallel replicate groups and 3 blank wells (culture medium wells without cells) were set. After 72 hours, the cell proliferation was detected by a multi-plate reader using CellTiter-Lumi™ luminescence method (Beyotime), and the IC50 was calculated by Graph Pad prism.
(§6) The calculation formula of cell proliferation rate: cell proliferation rate=(Luminescence value of drug-treated group—average Luminescence value of blank wells)/(Luminescence value of DMSO control group—average Luminescence value of blank wells)×100%.
The method to evaluate whether the model is successfully constructed is to compare the IC50 of drug-resistant cells and naive cells, the obtained ratio was the drug-resistance index, and if the ratio was greater than 3, then the model was successfully constructed.

The subject of experiment [3] is HEL^PE (HEL-persistent, ruxolitinib-resistant) cells. In words: Anti-proliferative test, CellTiter-Lumi luminescence method, HEL-persistent model. The following applies: for IC50: Homo sapiens, HEL^PE cells, 72 hours. As to the method: as §3, §4
To test the anti-proliferative effect of the inhibitors, the above cell lines were cultured at a 3000 cells/200 μL per well, added with increasing concentrations of the inhibitors (concentration gradient: 0, 1, 2.5, 5, 10, 20 μM), then supplemented with DMSO to an equal volume. […] After 72 hours, the cell proliferation was detected by a multi-plate reader using CellTiter-Lumi™ luminescence method (Beyotime), and the IC50 was calculated by Graph Pad prism.
The calculation formula of cell proliferation rate: cell proliferation rate=(Luminescence value of drug-treated group—average Luminescence value of blank wells)/(Luminescence value of DMSO control group—average Luminescence value of blank wells)×100%. […]

For experiment [4], the system named is HEL^RE (HEL-resistant, ruxolitinib-resistant) cells. The experiment in a line: Apoptosis detection by flow cytometry after Annexin V-PI staining, HEL-resistant model. The following applies: 24 hours.
Source text: as §1, §2

Experiment [5] concerns HEL cells. The experiment in a line: Anti-proliferative test, CellTiter-Lumi luminescence method, HEL cells. As to conditions: 72 hours; for average proliferation rate: HEL cells, relative to DMSO control. As to the method:
as §3, §5, §6

For experiment [6], the system named is HEL cells. The experiment in a line: Apoptosis detection by flow cytometry after Annexin V-PI staining, HEL cells. As to conditions: 24 hours.
Source text: as §1, §2
(In general: A flow cytometer gives signals particle by particle.)

Values joined by “and” are separate entries in the source; they are usually repeats but may differ in a detail not shown here. Equal values may be shown once.

By IC50 is commonly meant the midpoint of a concentration-inhibition curve.

For `N#CC[C@H](C1CCCC1)n1cc(-c2ncnc3[nH]ccc23)cn1` [ruxolitinib, Ruxolitinib], the average apoptosis rate was 0.920% in experiment [1] (2.5 μM); 1.11% in experiment [1] (5 μM); 0.740% in experiment [1] (10 μM); 1.16% and 3.75% in experiment [4] (2.5 μM); 1.35% and 3.70% in experiment [4] (5 μM); 1.05% and 4.34% in experiment [4] (10 μM). Moreover, the average apoptosis rate was 4.65% and 2.05% in the experiment with HEL cells [6] (2.5 μM); 5.07% and 2.14% in the experiment with HEL cells [6] (5 μM); 4.59% and 2.16% with HEL cells [6] (10 μM). Moreover, the IC50 in experiment [2] (72 hours) was 24.9 µM; in experiment [3], 25.5 µM; in the experiment on HEL cells [5] (Homo sapiens, HEL naive cells, mean (95% confidence interval)), 0.05 µM. Further, the drug-resistance index in experiment [2] (ratio of IC50 of HEL^RE cells to IC50 of naive HEL cells) amounted to 498; in experiment [3] (ratio of IC50 of HEL^PE cells to IC50 of naive HEL cells), 510. Further, the average proliferation rate in the experiment with HEL cells [5] (1 μM) was 41.4% and 50.5%; with HEL cells [5] (2.5 μM), 40.6% and 48.4%; in the experiment with HEL cells [5] (5 μM), 42.8% and 50.2%; with HEL cells [5] (10 μM) it was 40.8% and 48.4%; in the experiment on HEL cells [5] (20 μM), 22.9% and 28.5%.

Regarding `CNC(=O)c1cc(Oc2ccc(NC(=O)Nc3ccc(Cl)c(C(F)(F)F)c3)cc2)ccn1` [sorafenib], the average apoptosis rate in experiment [1] (2.5 μM) worked out at 2.16%; in experiment [1] (5 μM) it was 11.1%; in experiment [1] (10 μM), 18.0%; in experiment [4] (2.5 μM) it was 1.22%; in experiment [4] (5 μM) it was 5.58%; in experiment [4] (10 μM), 18.6%. For the same compound, the average apoptosis rate came to 5.82% with HEL cells [6] (2.5 μM), 10.9% in the experiment with HEL cells [6] (5 μM) and 16.1% with HEL cells [6] (10 μM). Further, the half-inhibitory concentration (IC50) is 3.56 µM in experiment [2] (Homo sapiens, 72 h) and 2.8 µM in experiment [3]. The average proliferation rate in the experiment on HEL cells [5] (1 μM) worked out at 80.3%; in the experiment on HEL cells [5] (2.5 μM) it was 72.1%; in the experiment on HEL cells [5] (5 μM) it was 40.0%; in the experiment on HEL cells [5] (20 μM), 0.828%.

Regarding `CNC(=O)c1cc(Oc2ccc(NC(=O)Nc3ccc(Cl)c(C(F)(F)F)c3)c(F)c2)ccn1` [regorafenib], the half-maximal inhibitory concentration (IC50) in experiment [2] (Homo sapiens, 72 h) worked out at 0.514 µM. The average apoptosis rate in experiment [4] (2.5 μM) worked out at 9.50%; in experiment [4] (5 μM), 12.9%; in experiment [4] (10 μM), 14.7%; in the experiment on HEL cells [6] (2.5 μM), 4.31%; in the experiment on HEL cells [6] (5 μM) it was 7.76%; in the experiment on HEL cells [6] (10 μM), 10.6%. In addition, the average proliferation rate in the experiment on HEL cells [5] (1 μM) was determined as 84.7%; in the experiment with HEL cells [5] (2.5 μM), 57.7%; with HEL cells [5] (5 μM) it was 32.1%; in the experiment on HEL cells [5] (10 μM), 17.7%; with HEL cells [5] (20 μM), 1.15%.
